According to patent US20220016092A1, “METHODS FOR TREATING SYMPTOMS AND DISORDERS ASSOCIATED WITH LYSOSOMAL STORAGE DISEASES” (GENZYME CORPORATION, priority 2019, published 2022):
Where “and” joins values, the source holds several entries; their conditions need not be identical. Equal values may be shown once. Entries after “also recorded” stand apart in the source; their conditions may differ. Read-outs that look alike come from different tables or passages of the source.

Legend:
Type in all cases: in vivo, human
[1] = tested on: adult patients with Gaucher disease Type 3; assay: Clinical study in GD-3 patients: interstitial lung disease by high-resolution CT; details: 15 mg/day + imiglucerase
Procedure: (§1) During the study patients were evaluated for safety and tolerability, CSF and plasma biomarkers (glucosylceramide, GL-1; glucosylsphingosine, lyso-GL1), pharmacokinetics, markers for systemic disease (spleen and liver volume measured by magnetic resonance imaging (MRI), platelet count, hemoglobin levels), indicia of interstitial lung disease (high resolution pulmonary computed tomography (CT)), and horizontal saccadic eye movement.
Severity of interstitial lung disease was characterized by the percent of lung volume affect by ILD as measured by high-resolution CT in four lung regions (aortic arch, carina, lower zone L3, lower zone L4). Patients were rated as having severe ILD (51-100% of lung volume affected), moderate ILD (26-50% of lung volume affected), mild ILD (1-25% of lung volume affected) or normal (0% of lung volume showing ILD).

[2] = tested on: adult patients with Gaucher disease Type 3; assay: Clinical study in GD-3 patients: safety and tolerability; details: 15 mg/day + imiglucerase
Procedure: as §1

[3] = Study 1 Part 2: pharmacokinetics with and without a high-fat meal; details: healthy men, single oral 5 mg dose
Source text: Study 1 was a 2-part single-center trial in healthy adult male volunteers.
Part 1 of the study enrolled and randomized 55 healthy men (placebo, n=14; 2-, 5-, 15, 25-, 50, and 100-mg doses, n=6 each; 150-mg dose, n=5). Eight healthy men participated in Part 2.
After a 7-day washout period, participants were crossed over to the other condition.

[4] = Clinical study in GD-3 patients: Compound 2 concentrations in plasma and CSF; details: 15 mg/day + imiglucerase; for AUC(0-t): read-out: AUC0-24 (mean ± SD); for Cmax: read-out: Cmax (mean ± SD)
Source text: Patients 18 years of age or older with a clinical diagnosis of GD3 and documented deficiency of acid beta-glucosidase activity having received treatment with ERT for at least 3 years and with imiglucerase (Cerezyme) at a stable monthly dose for at least 6 months prior to enrollment were included in the study. Patients must have reached the following GD therapeutic goals: hemoglobin level of ≥11.0 g/dL for females and ≥12.0 g/dL for males; platelet count ≥100 000/mm3; spleen volume <10 multiples of normal (MN), or total splenectomy (provided the splenectomy occurred >3 years prior to randomization); liver volume <1.5 MN; and no bone crisis and free of symptomatic bone disease such as bone pain attributable to osteonecrosis and/or pathological fractures within the last year. Patients must have GD3 featuring oculomotor apraxia (supranuclear gaze palsy) characterized by a horizontal saccade abnormality.
as §1
A second interim analysis was performed when the first 6 patients had reached 52-weeks of treatment, as described above in section (A). This analysis included Patients 1-5 as described in section (A), as well as new Patient 6. All six patients had L444P (1448T/C) homozygous Gaucher phenotype.

[5] = tested on: glucosylceramide (GL-1) and glucosylsphingosine (lyso-GL1) in CSF and plasma; assay: Clinical study in GD-3 patients: GL-1 and lyso-GL-1 in CSF and plasma; details: 15 mg/day + imiglucerase; for GL-1 in CSF, percent change from baseline, Mean (n = 4) / Lyso-GL1 in CSF, percent change from baseline, Mean (n = 4): excludes Patient 5
Procedure: as §1
At baseline, the mean (±SD) GL-1 concentration in CSF was 7.1±2.8 ng/mL (range 4.4-11.1 ng/mL), while the mean (±SD) lyso-GL-1 concentration in CSF was 39.3±22.9 pg/mL (range 20.1-67.6 pg/mL). For comparison, the healthy GL-1 concentration in CSF is 4.5-5.9 ng/mL, and the healthy level of lyso-GL-1 in CSF is less than 5.0 pg/mL. […]

[6] = tested on: GL-3 inclusions in superficial endothelial cell capillaries; assay: Clinical study in Fabry disease patients: GL-3 inclusion volume fraction by electron microscopy; details: 15 mg/day oral
Source text: In addition to scoring GL-3 skin inclusions by light microscopy, the fraction of the volume of endothelial cell cytoplasm occupied by GL-3 inclusions was estimated using point-counting of electron microscopic images by a masked reader. Images from at least 50 superficial endothelial cell capillaries were obtained using electron microscopy at 7500× magnification. Two-sided t tests were used to evaluate differences between baseline and post-treatment values at each time point.

[7] = Week 26, individual Patients 1-5
[8] = human, plasma, oral, plasma, Day 1 (N = 5)
[9] = human, plasma, oral, plasma, Day 1 (N = 6)
[10] = 4 weeks, individual Patients 1-5
[11] = 26 weeks, individual Patients 1-5 (Patient 5 reduced exposure)

CC(C)(NC(=O)O[C@@H]1CN2CCC1CC2)c1csc(-c2ccc(F)cc2)n1 [Compound 2, (S)-quinuclidin-3-yl 2-(2-(4-fluorophenyl)thiazol-4-yl)propan-2-ylcarbamate]
ILD severity, Aortic Arch Left [1, 7]: Norm (normal (0% of lung volume showing ILD)); also recorded: Mild (mild ILD (1-25% of lung volume affected)) | ILD severity, Aortic Arch Right [1, 7]: Norm (normal (0% of lung volume showing ILD)); also recorded: Mild (mild ILD (1-25% of lung volume affected)) | ILD severity, Carina Left [1, 7]: Norm (normal (0% of lung volume showing ILD)); also recorded: Mild (mild ILD (1-25% of lung volume affected)) | ILD severity, Carina Right [1, 7]: Norm (normal (0% of lung volume showing ILD)); also recorded: Mod (moderate ILD (26-50% of lung volume affected)); also recorded: Mild (mild ILD (1-25% of lung volume affected)) | ILD severity, Zone L3 Left [1, 7]: Norm (normal (0% of lung volume showing ILD)); also recorded: Mild (mild ILD (1-25% of lung volume affected)) | ILD severity, Zone L3 Right [1, 7]: Norm (normal (0% of lung volume showing ILD)); also recorded: Mild (mild ILD (1-25% of lung volume affected)) | ILD severity, Zone L4 Left [1, 7]: Norm (normal (0% of lung volume showing ILD)); also recorded: Mod (moderate ILD (26-50% of lung volume affected)) | ILD severity, Zone L4 Right [1, 7]: Norm (normal (0% of lung volume showing ILD)); also recorded: Mod (moderate ILD (26-50% of lung volume affected)) | Patients showing regression of ILD ([1]; after 26 weeks): 4 out of 5 | Treatment-emergent adverse events ([2]; 26 weeks, all 5 patients): no serious or lasting treatment-emergent adverse events | Severity and relatedness of treatment-emergent adverse events ([2]; 52 weeks, six patients): mild or moderate in severity, and none of which were considered related to treatment with Compound 2 or imiglucerase | Total treatment-emergent adverse events reported ([2]; 52 weeks, six patients): 30 | Effect of a high-fat meal on exposure compared with fasting conditions [3]: no effect | Median tmax ([3]; fed or fasting): 6.00 h | Crossing of the blood-brain barrier [4]: effectively cross the blood-brain barrier in all patients | Time at which steady state concentration is reached in plasma and CSF [4]: ≤ 4 Week | Concentration in CSF 2-4 hours post dose (mean ± SD) ([4]; Day 1 (N = 6)): <LLOQ | Concentration in CSF 4 hours post dose (mean ± SD) ([4]; Week 4 (N = 5)): 4.17 ± 0.83 ng/mL | Concentration in CSF 4 hours post dose (mean ± SD) ([4]; Week 26 (N = 4)): 4.71 ± 2.50 ng/mL | tmax (median) ([4]; plasma, Day 1 (N = 6)): 2.00 h | Tmax ([4]; human, oral, plasma, Day 1 (N = 5), read-out: tmax (median)): 2 h | AUC(0-t) [4, 8]: 715 ± 225 ng·h/mL | Cmax [4, 8]: 48.2 ± 19.2 ng/mL | AUC(0-t) [4, 9]: 729 ± 205 ng·h/mL | Cmax [4, 9]: 49.1 ± 17.3 ng/mL | GL-1 in CSF, percent change from baseline, Mean (n = 4) ([5]; 4 weeks): −64% | Lyso-GL1 in CSF, percent change from baseline, Mean (n = 4) ([5]; 4 weeks): −32% | GL-1 in CSF, percent change from baseline [5, 10]: −86% and −55% and −53% and −62% and −36% | Lyso-GL1 in CSF, percent change from baseline [5, 10]: −38% and −16% and −34% and −39% and −11% | GL-1 in CSF, percent change from baseline, Mean (n = 4) ([5]; 26 weeks): −75% | Lyso-GL1 in CSF, percent change from baseline, Mean (n = 4) ([5]; 26 weeks): −48% | GL-1 in CSF, percent change from baseline [5, 11]: −86% and −78% (2×) and −58% and +4% | Lyso-GL1 in CSF, percent change from baseline [5, 11]: −52% and −42% and −41% and −57% and +94% | Volume fraction (volume of inclusions/total cytoplasmic volume) ([6]; 3 months (N = 9)): 0.29 ± 0.06 | Volume fraction, Change from baseline ([6]; 3 months (N = 9), P 0.74): −1.9% | Volume fraction (volume of inclusions/total cytoplasmic volume) ([6]; 3 years (N = 6)): 0.18 ± 0.03 | Volume fraction, Change from baseline ([6]; 3 years (N = 6), P 0.001): −38.7% | Volume fraction (volume of inclusions/total cytoplasmic volume) ([6]; 6 months (N = 8)): 0.23 ± 0.04 | Volume fraction, Change from baseline ([6]; 6 months (N = 8), P 0.001): −21.1%
